Where two headings read alike, the source gives them in different places.
Columns and labels:
[1] = test system: A549 non-small cell lung cancer; assay: MTT assay, proliferation inhibition; type: cell-based; settings: Homo sapiens, read-out: Proliferation inhibition rate
Text: (§1) 1. Cytotoxicity Assay Using Human Tumor Cell Lines
(§2) Paclitaxel was used as the positive drug.

MDA-MB-436 breast cancer = assay: MTT assay, proliferation inhibition; type: cell-based; settings: Homo sapiens, read-out: Proliferation inhibition rate
Text: as §1, §2

[2] = MTT assay, proliferation inhibition; type: cell-based; settings: Homo sapiens, LN-18 gastric cancer, read-out: Proliferation inhibition rate
Text: as §1, §2

HeLa cervical cancer = assay: MTT assay, proliferation inhibition; type: cell-based; settings: Homo sapiens, read-out: Proliferation inhibition rate
Text: as §1, §2

A2780 ovarian cancer = assay: MTT assay, proliferation inhibition; type: cell-based; settings: Homo sapiens, read-out: Proliferation inhibition rate
Text: as §1, §2

BGC-823 gastric cancer = assay: MTT assay, proliferation inhibition; type: cell-based; settings: Homo sapiens, read-out: Proliferation inhibition rate
Text: as §1, §2

A375 melanoma = assay: MTT assay, proliferation inhibition; type: cell-based; settings: Homo sapiens, A-375, read-out: Proliferation inhibition rate
Text: as §1, §2

HCT 116 colon cancer = assay: MTT assay, proliferation inhibition; type: cell-based; settings: Homo sapiens, read-out: Proliferation inhibition rate
Text: as §1, §2

MCF-7 breast cancer = assay: MTT assay, proliferation inhibition; type: cell-based; settings: Homo sapiens, MCF7, read-out: Proliferation inhibition rate
Text: as §1, §2

HL60 leukemia = assay: MTT assay, proliferation inhibition; type: cell-based; settings: Homo sapiens, HL-60, read-out: Proliferation inhibition rate
Text: as §1, §2

B16 melanoma = assay: MTT assay, proliferation inhibition; type: cell-based; settings: read-out: Proliferation inhibition rate
Text: as §1, §2

LNCaP prostate cancer = assay: MTT assay, proliferation inhibition; type: cell-based; settings: Homo sapiens, read-out: Proliferation inhibition rate
Text: as §1, §2

DU145 prostate cancer = assay: MTT assay, proliferation inhibition; type: cell-based; settings: Homo sapiens, DU-145, read-out: Proliferation inhibition rate
Text: as §1, §2

[3] = test system: NCI-H460 non-small cell lung cancer; assay: MTT assay, proliferation inhibition; type: cell-based; settings: Homo sapiens, read-out: Proliferation inhibition rate
Text: as §1, §2

HT29 colon cancer = assay: MTT assay, proliferation inhibition; type: cell-based; settings: Homo sapiens, HT-29, read-out: Proliferation inhibition rate
Text: as §1, §2

K562 leukemia = assay: MTT assay, proliferation inhibition; type: cell-based; settings: Homo sapiens, read-out: Proliferation inhibition rate
Text: as §1, §2

[4] = In vivo oral bioavailability assay (pharmacokinetics); set-up: species or system S.D. rats; settings: rat; for AUC(0-t): 0-24 hours; for MRT inf: read-out: MRT0-∞
Text: 3. In Vivo Oral Bioavailability Assay
The compound PCMI-31 was synthesized and detected according to the methods provided in the present invention. The internal standard, paclitaxel, was purchased from China's National Institute for the Control of Pharmaceutical and Biological Products (NICPBP). Chromatography-grade acetonitrile was purchased from Sigma-Aldrich Inc. Tween 80 and ethyl acetate were purchased from Aladdin reagent Inc. Male S.D. rats were purchased from Beijing Weitonglihua Inc. and raised in animal house for two weeks.
200 mg of PCMI-31 was dissolved in 4 ml of a mixed solution of Tween 80 and anhydrous ethanol (1:1) to prepare a stock solution at 50 mg/ml and normal saline was added to adjust to a suitable concentration. 12 male S.D. rats (about 300 g of body weight) were taken and divided into two groups after overnight fasting. One group was treated with intravenous injection (5 mg/kg) and the other group was treated orally (60 mg/kg). Blood was sampled in the intravenous group at 0th min, 5th min, 10th min, 20th min, 40th min, 1st h, 2nd h, 4th h, 6th h, 8th h, 12th h, 24th h, while the oral group at 5th min, 15th min, 30th min, 45th min, 1st h, 2nd h, 4th h, 6th h, 8th h, 12th h, 24th h. After 10 min centrifugation of plasma at 4500 rpm, the upper serum was taken and transferred to the corresponding EP tube, placed in a −40° C. freezer for assay.
Agilent 1100 series configuration: Agilent G1313A HPLC autosampler device, 150 mm×2.1 mm C18 Thermo column (particle size 3 μm) reversed-phase column, detection wavelength at 230 nm, column temperature at 30° C., mobile phase of acetonitrile/water (7:3), a flow rate at 0.2 ml/min, injection volume of 20 μl. The mass spectrometry (MS) combined was Thermo Finnigan TSQ Quantum triple quadrupole configurated with electrospray ionization (ESI) in the positive ion mode. The parameters of MS analysis were as follows: spray chamber voltage, 4.0 kv; heated capillary temperature, 350° C.; protective gas (nitrogen); 20 psi; auxiliary gas (nitrogen): 5 psi; collision gas (argon); pressure: 1.5 mmTorr.; Collision energy: CA 17 eV; FA and IFA were 19 eV: IS was 15 eV.
Paclitaxel was selected as an internal standard with a retention time of 3.07 min. Retention time of PCMI-31 was 4.21 min. MS detection condition to PCMI-31 was set as follows: 915→634 m/z; paclitaxel as an internal standard. Detection conditions: 876→308m/z. The concentration range of the standard curve of PCMI-31 was 5-10,000 ng/ml (γ^2>0.99) and the minimum detection limit was 5 ng/ml.
100 μL of plasma samples were taken, into which 100 μL of the internal standard (paclitaxel, 500 ng/ml acetonitrile solution) was added, followed by addition of 3 ml of ethyl acetate after well homogenized via vortex, after 5 min shaking, centrifuging for 8 min at a rotating speed of 4500 rpm. The supernatant was transferred to a clean EP tube with nitrogen to blow to dry under heating condition. After reconstitution with 120 μl mobile phase (CH3CN/H2O=7:3), the solution was centrifuged at 12,000 rpm for 3 min, 100 μl of supernatant was taken and transferred to an autosampler vial. After LC-MS/MS detection, statistical data and pharmacokinetic parameters were processed by Xcallbur® (version 1.3) software (Thermo Finnigan).

[5] = male, S.D., plasma, intravenous administration 5 mg/kg
[6] = male, S.D., plasma, oral administration 60 mg/kg

CO[C@H]1C(=O)[C@]2(C)[C@@H](OC(=O)N(C)C)C[C@H]3OC[C@@]3(OC(C)=O)[C@H]2[C@H](OC(=O)c2ccccc2)[C@]2(O)C[C@H](OC(=O)[C@H](O)[C@@H](NC(=O)OC(C)(C)C)c3ccccc3)C(C)=C1C2(C)C [PCMI-31]
inhibition at 1 µM [1]: 76%
inhibition at 1 µM (MDA-MB-436 breast cancer): 86.3%
inhibition at 1 µM [2]: 95.6%
inhibition at 1 µM (HeLa cervical cancer): 103%
inhibition at 1 µM (A2780 ovarian cancer): 95.6%
inhibition at 1 µM (BGC-823 gastric cancer): 96.2%
inhibition at 1 µM (A375 melanoma): 88.4%
inhibition at 1 µM (HCT 116 colon cancer): 60.7%
inhibition at 1 µM (MCF-7 breast cancer): 90.8%
inhibition at 1 µM (HL60 leukemia): 97.8%
inhibition at 1 µM (B16 melanoma): 81.8%
inhibition at 1 µM (LNCaP prostate cancer): 82.2%
inhibition at 1 µM (DU145 prostate cancer): 85.8%
inhibition at 1 µM [3]: 87.7%
inhibition at 1 µM (HT29 colon cancer): 89.4%
inhibition at 1 µM (K562 leukemia): 93.2%
half-life ([4]; male, S.D., plasma, other: oral or intravenous administration, generally, oral or intravenous administration, read-out: half-life (converted)): ~3 h
AUC(0-t) ([4]; male, S.D., plasma, intravenous 5 mg/kg): 3310 ± 1330 ng·h/mL
AUC(0-inf) [4, 5]: 3320 ± 1330 ng·h/mL
Cmax [4, 5]: 7990 ± 3470 ng/mL
Tmax [4, 5]: 0 h
MRT inf [4, 5]: 2.58 ± 0.87 h
half-life ([4]; male, S.D., plasma, intravenous administration 5 mg/kg, read-out: t1/2 (converted)): 3.21 ± 0.53 h
AUC(0-t) ([4]; male, S.D., plasma, oral 60 mg/kg): 4250 ± 2480 ng·h/mL
AUC(0-inf) [4, 6]: 4270 ± 2490 ng·h/mL
Cmax [4, 6]: 922 ± 561 ng/mL
Tmax [4, 6]: 0.8 ± 0.2 h
MRT inf [4, 6]: 4.33 ± 0.74 h
half-life ([4]; male, S.D., plasma, oral administration 60 mg/kg, read-out: t1/2 (converted)): 2.97 ± 0.55 h
bioavailability ([4]; male, S.D., plasma, oral, 60 mg/kg, oral 60 mg/kg vs intravenous 5 mg/kg, read-out: F, absolute oral bioavailability): 10.7%
F, absolute oral bioavailability ([4]; oral 60 mg/kg vs intravenous 5 mg/kg): 10.71%
